Results published in patent publication US20090203692A1, “NOVEL CHEMICAL COMPOUNDS” (SMITHKLINE BEECHAM CORPORATION, priority 2005, published 2009).

Molecular target: T1, hYAK3 (Homo sapiens, UniProt O43781)
T1 construct: GST (N); His6 (C); made in house; host or cells: baculovirus expression system in Sf9 cells
T1 sequence (O43781 142-526): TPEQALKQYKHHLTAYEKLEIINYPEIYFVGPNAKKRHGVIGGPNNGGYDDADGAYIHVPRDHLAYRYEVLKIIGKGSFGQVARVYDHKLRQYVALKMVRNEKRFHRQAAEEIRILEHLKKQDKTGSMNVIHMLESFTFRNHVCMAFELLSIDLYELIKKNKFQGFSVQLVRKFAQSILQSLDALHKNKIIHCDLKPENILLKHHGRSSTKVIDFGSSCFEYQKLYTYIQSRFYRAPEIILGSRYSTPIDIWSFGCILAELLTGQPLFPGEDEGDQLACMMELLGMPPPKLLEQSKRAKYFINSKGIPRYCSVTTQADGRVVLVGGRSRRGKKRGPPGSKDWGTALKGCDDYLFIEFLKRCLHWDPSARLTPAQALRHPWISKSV
Assay: YAK3 Scintillation Proximity Assay using Ser164 of myelin basic protein as the phosphoacceptor (kinase assay of purified hYAK3)
Type: biochemical
Settings: purified GST-hYak3-His6 4 nM; 1 μM ATP; 4 μM Ser164 peptide; 2 hours at room temperature; pIC50=-Log10(K)
Procedure: Substrate phosphorylation assays were carried out as follows:
YAK3 Scintillation Proximity Assays Using Ser164 of Myelin Basic Protein as the Phosphoacceptor
The source of Ser164 substrate peptide The biotinylated Ser164, S164A peptide(LGGRDSRAGS*PMARRKK-ahx-Biotin-Amide), sequence derived from the C-terminus of bovine myelin basic protein (MBP) with […] substituted as Ala 162, was purchased from California Peptide Research Inc. (Napa, Calif.), and its purity was determined by HPLC. Phosphorylation occurs at position 164 (marked S* above). The calculated molecular mass of the peptide is 2166 dalton. Solid sample was dissolved at 10 mM in DMSO, aliquoted, and stored at −20 C until use. […]
Kinase assay of purified hYAK3: Assays were performed in 96 well (Costar, Catalog No. 3789) or 384 well plates (Costar, Catalog No. 3705). […] Compounds, titrated in DMSO, were evaluated at concentrations ranging from 50 μM to 0.2 nM. […]
The data for compound dose responses were plotted as % Inhibition, calculated with the data reduction formula 100*(1−[(U1−C2)/(C1−C2)]), versus concentration of compound, where U is the unknown value, C1 is the average control value obtained for DMSO, and C2 is the average control value obtained for 0.05M EDTA. […] The results for each compound were recorded as pIC50 calculated as follows: pIC50=−Log 10(K).

- IC50: 1.58 nM
Structure (SMILES): O=C1N=C(Nc2cccnc2Cl)S/C1=C\c1ccc2ncccc2c1 [Example 1, (5Z)-2-[(2-Chloro-3-pyridinyl)amino]-5-(6-quinolinylmethylidene)-1,3-thiazol-4(5H)-one]
